Data as given in paper PMC7026418, “The kinase polypharmacology landscape of clinical PARP inhibitors” (Scientific Reports, 2020).
Like-named read-outs stand apart in the source and are kept apart here. Blank lines part the entries; values can stand above or below the molecule they belong to.

Experiments:
Assay in all cases: biochemical
Parameters in all cases: DiscoveRx KINOMEscan active site-directed competition binding; percent of control kinase bound to immobilised ligand
ACVR1B = molecular target: T1, ACVR1B (Homo sapiens, UniProt P36896)
T1 sequence (P36896 1-505): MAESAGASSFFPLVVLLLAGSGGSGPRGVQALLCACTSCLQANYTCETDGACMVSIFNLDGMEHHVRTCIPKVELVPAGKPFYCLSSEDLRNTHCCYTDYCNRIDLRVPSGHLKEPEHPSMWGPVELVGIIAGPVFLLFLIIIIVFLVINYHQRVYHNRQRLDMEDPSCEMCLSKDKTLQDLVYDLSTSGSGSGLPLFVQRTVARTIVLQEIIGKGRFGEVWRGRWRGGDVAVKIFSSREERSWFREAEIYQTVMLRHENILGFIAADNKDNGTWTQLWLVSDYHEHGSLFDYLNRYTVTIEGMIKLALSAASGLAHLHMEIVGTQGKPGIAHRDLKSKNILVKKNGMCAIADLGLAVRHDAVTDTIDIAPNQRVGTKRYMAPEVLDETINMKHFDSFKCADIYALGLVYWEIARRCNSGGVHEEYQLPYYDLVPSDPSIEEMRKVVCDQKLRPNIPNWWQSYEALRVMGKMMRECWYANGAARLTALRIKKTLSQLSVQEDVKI

BRK = molecular target: T2, BRK (Homo sapiens, UniProt Q13882)
T2 construct: gene PTK6

BUB1 = BUB1 (Homo sapiens, UniProt O43683)
EPHA6 = molecular target: T3, EPHA6 (Homo sapiens, UniProt Q9UF33)
T3 sequence (Q9UF33 1-1036): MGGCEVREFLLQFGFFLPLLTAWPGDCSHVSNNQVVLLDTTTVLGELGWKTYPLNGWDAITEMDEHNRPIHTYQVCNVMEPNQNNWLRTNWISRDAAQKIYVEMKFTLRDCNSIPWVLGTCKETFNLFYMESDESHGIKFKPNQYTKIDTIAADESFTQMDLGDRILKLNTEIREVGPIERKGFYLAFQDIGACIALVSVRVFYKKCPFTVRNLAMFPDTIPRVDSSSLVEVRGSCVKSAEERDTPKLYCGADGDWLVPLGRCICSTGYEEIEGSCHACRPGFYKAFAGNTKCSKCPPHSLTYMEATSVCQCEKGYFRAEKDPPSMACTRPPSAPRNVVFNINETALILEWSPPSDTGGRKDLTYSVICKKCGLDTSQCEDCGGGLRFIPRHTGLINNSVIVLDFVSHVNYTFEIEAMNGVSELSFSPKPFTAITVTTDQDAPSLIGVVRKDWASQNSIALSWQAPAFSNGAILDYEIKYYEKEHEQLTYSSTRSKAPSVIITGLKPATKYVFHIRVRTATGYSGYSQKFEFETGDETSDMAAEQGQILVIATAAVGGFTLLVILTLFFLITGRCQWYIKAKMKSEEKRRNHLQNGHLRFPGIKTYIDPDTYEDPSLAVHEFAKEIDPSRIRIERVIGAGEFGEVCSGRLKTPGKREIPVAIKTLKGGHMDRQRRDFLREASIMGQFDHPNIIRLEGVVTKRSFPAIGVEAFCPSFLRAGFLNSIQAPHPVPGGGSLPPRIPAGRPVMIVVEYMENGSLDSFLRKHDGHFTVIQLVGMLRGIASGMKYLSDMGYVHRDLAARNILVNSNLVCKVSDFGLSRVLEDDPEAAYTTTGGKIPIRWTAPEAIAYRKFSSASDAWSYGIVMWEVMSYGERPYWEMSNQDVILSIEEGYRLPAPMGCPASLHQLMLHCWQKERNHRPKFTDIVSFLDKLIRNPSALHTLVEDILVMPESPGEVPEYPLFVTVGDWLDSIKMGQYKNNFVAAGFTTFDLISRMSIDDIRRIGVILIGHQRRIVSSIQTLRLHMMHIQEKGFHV

MYO3A = MYO3A (Homo sapiens, UniProt Q8NEV4)
ULK2 = molecular target: T4, ULK2 (Homo sapiens, UniProt Q8IYT8)
T4 sequence (Q8IYT8 1-1036): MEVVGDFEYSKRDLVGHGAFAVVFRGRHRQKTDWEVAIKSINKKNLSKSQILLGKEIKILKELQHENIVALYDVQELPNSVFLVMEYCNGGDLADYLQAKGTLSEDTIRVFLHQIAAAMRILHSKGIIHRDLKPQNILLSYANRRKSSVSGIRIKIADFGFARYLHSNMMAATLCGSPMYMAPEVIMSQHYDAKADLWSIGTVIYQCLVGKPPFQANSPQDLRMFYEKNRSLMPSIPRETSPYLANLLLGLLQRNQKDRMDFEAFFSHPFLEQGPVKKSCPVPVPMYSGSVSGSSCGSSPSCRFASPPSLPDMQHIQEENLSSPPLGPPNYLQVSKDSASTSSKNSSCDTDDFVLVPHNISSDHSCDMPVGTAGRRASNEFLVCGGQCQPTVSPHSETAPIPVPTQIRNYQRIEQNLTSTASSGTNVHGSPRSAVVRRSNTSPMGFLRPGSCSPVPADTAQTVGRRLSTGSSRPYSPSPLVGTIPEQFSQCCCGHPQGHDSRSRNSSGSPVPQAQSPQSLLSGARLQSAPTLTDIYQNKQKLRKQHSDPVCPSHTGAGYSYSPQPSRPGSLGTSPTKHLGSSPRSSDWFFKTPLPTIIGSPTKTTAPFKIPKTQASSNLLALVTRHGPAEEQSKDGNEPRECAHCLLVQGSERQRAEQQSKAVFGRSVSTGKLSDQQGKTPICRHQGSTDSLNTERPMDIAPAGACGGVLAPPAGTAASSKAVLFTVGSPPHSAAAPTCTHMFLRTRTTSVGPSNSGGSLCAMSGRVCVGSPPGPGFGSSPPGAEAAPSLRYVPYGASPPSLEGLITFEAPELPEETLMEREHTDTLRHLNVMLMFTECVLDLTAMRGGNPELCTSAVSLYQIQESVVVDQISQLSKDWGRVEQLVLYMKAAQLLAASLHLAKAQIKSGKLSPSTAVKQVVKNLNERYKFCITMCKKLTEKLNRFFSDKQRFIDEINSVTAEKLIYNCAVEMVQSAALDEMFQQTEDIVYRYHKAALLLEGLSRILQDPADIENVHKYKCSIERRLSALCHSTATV

[1] = read-out: Niraparib (MK-4827) / %Ctrl @ 10000nM
[2] = read-out: Olaparib / %Ctrl @ 10000nM
[3] = read-out: Rucaparib / %Ctrl @ 10000nM, binding competition, % of control
[4] = read-out: Talazoparib (BMN 673) / %Ctrl @ 10000nM

Sequence of BUB1 (O43683 whole entry): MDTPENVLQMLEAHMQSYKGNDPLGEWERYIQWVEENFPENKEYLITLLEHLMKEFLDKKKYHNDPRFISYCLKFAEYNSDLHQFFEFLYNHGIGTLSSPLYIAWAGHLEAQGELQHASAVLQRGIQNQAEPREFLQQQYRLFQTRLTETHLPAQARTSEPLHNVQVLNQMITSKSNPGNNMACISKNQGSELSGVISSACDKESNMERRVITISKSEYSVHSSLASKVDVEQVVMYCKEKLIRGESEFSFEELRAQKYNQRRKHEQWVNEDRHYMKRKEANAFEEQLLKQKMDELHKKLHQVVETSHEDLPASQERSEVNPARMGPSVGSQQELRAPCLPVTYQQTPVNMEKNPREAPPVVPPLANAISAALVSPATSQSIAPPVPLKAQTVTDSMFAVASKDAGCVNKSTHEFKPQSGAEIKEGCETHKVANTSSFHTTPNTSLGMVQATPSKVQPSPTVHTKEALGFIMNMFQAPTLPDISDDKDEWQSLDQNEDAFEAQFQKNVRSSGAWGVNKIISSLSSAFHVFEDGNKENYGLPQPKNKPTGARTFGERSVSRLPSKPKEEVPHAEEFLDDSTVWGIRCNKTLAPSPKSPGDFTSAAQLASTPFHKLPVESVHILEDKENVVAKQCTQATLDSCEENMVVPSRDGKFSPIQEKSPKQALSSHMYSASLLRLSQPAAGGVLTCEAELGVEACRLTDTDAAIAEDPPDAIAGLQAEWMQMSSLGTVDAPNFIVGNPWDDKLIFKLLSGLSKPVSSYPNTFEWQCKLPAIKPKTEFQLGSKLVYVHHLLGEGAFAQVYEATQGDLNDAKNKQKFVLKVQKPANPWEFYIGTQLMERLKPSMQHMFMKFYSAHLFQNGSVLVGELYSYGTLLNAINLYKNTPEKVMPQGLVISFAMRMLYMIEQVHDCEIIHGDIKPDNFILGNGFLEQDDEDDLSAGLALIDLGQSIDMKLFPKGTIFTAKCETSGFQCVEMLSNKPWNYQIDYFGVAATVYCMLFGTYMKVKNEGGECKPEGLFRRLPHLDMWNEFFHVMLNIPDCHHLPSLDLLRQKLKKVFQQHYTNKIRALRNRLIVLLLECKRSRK
Sequence of MYO3A (Q8NEV4 whole entry): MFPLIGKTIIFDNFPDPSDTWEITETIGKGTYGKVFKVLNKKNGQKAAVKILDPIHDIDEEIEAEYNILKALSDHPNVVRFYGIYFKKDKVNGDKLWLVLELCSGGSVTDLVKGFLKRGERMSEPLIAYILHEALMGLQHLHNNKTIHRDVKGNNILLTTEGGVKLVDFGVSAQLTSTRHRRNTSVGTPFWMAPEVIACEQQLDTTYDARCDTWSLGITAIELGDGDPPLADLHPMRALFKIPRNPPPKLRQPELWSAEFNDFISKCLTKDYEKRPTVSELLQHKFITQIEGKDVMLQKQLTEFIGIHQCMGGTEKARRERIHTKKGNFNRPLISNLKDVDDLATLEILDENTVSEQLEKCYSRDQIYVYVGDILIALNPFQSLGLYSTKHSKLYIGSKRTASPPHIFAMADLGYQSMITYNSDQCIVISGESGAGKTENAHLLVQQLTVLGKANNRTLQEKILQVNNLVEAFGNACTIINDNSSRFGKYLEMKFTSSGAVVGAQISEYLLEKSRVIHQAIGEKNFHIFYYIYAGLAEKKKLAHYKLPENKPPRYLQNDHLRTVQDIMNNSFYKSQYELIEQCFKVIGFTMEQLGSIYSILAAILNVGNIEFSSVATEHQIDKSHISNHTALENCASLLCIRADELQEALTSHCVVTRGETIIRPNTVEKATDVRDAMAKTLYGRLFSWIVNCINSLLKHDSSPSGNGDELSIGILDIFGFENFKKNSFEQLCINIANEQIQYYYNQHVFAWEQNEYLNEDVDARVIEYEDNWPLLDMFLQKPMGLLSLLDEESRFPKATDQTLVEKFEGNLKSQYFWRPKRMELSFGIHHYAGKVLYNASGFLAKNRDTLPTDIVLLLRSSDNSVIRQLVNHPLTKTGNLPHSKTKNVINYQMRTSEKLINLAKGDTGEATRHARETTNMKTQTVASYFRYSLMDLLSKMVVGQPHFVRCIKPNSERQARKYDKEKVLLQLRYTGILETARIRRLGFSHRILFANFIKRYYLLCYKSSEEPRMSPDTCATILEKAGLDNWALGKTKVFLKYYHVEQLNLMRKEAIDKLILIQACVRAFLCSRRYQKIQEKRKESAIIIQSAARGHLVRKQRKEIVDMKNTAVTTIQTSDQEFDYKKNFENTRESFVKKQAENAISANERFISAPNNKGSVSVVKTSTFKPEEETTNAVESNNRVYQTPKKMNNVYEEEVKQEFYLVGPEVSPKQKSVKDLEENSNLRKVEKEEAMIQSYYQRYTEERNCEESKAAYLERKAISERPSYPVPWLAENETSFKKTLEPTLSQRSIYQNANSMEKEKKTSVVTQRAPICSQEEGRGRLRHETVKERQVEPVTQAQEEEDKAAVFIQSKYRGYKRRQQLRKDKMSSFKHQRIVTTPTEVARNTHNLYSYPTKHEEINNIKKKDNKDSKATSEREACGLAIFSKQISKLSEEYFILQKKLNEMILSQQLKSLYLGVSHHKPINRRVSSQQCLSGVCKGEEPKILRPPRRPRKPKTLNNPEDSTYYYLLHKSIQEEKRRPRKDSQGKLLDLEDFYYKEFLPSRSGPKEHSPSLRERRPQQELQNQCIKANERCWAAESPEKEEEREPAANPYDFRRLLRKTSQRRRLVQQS
T2 sequence (Q13882 whole entry): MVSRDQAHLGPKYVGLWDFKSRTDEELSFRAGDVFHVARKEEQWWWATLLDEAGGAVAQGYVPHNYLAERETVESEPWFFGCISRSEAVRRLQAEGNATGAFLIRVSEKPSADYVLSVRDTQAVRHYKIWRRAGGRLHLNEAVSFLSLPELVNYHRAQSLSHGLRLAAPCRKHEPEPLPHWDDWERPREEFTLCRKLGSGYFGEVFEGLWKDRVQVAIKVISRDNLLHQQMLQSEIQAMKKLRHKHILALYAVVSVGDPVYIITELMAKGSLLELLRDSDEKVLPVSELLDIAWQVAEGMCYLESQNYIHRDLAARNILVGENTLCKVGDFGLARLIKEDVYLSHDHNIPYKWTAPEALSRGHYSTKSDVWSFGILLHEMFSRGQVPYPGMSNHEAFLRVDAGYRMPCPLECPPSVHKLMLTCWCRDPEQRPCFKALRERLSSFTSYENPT

Structure (SMILES): NC(=O)c1cccc2cn(-c3ccc([C@@H]4CCCNC4)cc3)nc12 [Niraparib]
percent of control binding at 10 µM (ACVR1B; [1]): 95%
percent of control binding at 10 µM (BRK; [1]): 91%
percent of control binding at 10 µM (BUB1; [1]): 97%
percent of control binding at 10 µM (EPHA6; [1]): 89%
percent of control binding at 10 µM (MYO3A; [1]): 72%
percent of control binding at 10 µM (ULK2; [1]): 93%

percent of control binding at 10 µM (ACVR1B; [2]): 100%
percent of control binding at 10 µM (BRK; [2]): 88%
percent of control binding at 10 µM (BUB1; [2]): 83%
percent of control binding at 10 µM (EPHA6; [2]): 94%
percent of control binding at 10 µM (MYO3A; [2]): 100%
percent of control binding at 10 µM (ULK2; [2]): 85%
Structure (SMILES): O=C(c1cc(Cc2n[nH]c(=O)c3ccccc23)ccc1F)N1CCN(C(=O)C2CC2)CC1 [Olaparib]

percent of control binding at 10 µM (ACVR1B; [3]): 89%
percent of control binding at 10 µM (BRK; [3]): 99%
percent of control binding at 10 µM (BUB1; [3]): 48%
percent of control binding at 10 µM (EPHA6; [3]): 99%
percent of control binding at 10 µM (MYO3A; [3]): 42%
percent of control binding at 10 µM (ULK2; [3]): 74%
Structure (SMILES): CNCc1ccc(-c2[nH]c3cc(F)cc4c3c2CCNC4=O)cc1 [Rucaparib]

percent of control binding at 10 µM (ACVR1B; [4]): 77%
percent of control binding at 10 µM (BRK; [4]): 100%
percent of control binding at 10 µM (BUB1; [4]): 100%
percent of control binding at 10 µM (EPHA6; [4]): 100%
percent of control binding at 10 µM (MYO3A; [4]): 83%
percent of control binding at 10 µM (ULK2; [4]): 100%
Structure (SMILES): Cn1ncnc1[C@H]1c2n[nH]c(=O)c3cc(F)cc(c23)N[C@@H]1c1ccc(F)cc1 [Talazoparib]
